Source: patent US5169963A, “Di-(5-hydroxy-2(5H)2-oxo-4-furyl)alkylmethyl-alpha,omega alkanedioates and N,N-bis-(5-hydroxy-2(5H)2-oxo-4-furyl)alkylmethyl-alpha,omega-dialkanoic acid amides as anti-inflammatory agents” (Allergan, Inc., priority 1991, dated 1992)

Legend:
[1] = biological target: bee venom phospholipase A2 (Apis mellifera, UniProt P00630); experiment: biochemical; conditions: read-out: PLA2 IC50
[2] = biological target: phosphoinositide-specific phospholipase C; experiment: Inhibition of Phosphoinositide-specific Phospholipase C; format: biochemical; conditions: procedure of Bennett et al, Molecular Pharmacology 32:587-593 (1987); read-out: PLC IC50
Source text: Inhibition of Phosphoinositide-specific Phospholipase C
The effect of compounds of this invention on phosphoinositide-specific phospholipase C may be determined by procedures described by Bennett et al, Molecular Pharmacology 32:587-593 (1987).

Chain of bee venom phospholipase A2 (P00630 34-167 limits assumed): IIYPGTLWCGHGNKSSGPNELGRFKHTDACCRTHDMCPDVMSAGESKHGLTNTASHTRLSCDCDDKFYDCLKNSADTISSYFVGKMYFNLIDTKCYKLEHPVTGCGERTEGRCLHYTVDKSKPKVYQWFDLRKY

Row | Structure (SMILES) | IC50 [1] [nM] | IC50 [2] [nM]
1 | CCCCCCC(OC(=O)CC(=O)OC(CCCCCC)C1=CC(=O)OC1O)C1=CC(=O)OC1O (centres unmarked) [Compound 4, Di[(1-5-hydroxy-2(5H)2-oxo-4-furyl)heptyl]malonate] | 30 | 
2 | CC(=CCCC1=CCC(C2=CC(=O)OC2O)OC1O)CCC1=C(C)CCCC1(C)C (centres unmarked) [manoalide, Manoalide, reference compound] |  | 3000
3 | CCCCCCCCCCCCC(OC(=O)CC(=O)OC(CCCCCCCCCCCC)C1=CC(=O)OC1O)C1=CC(=O)OC1O (centres unmarked) [Compound 1, Bis[1-(5-hydroxy-2(5H)-furano-4-yl)tridecyl]malonate] | 20 | 2000
4 | CCCCCCCCCCCCC(OC(=O)CCCC(=O)OC(CCCCCCCCCCCC)C1=CC(=O)OC1O)C1=CC(=O)OC1O (centres unmarked) [Compound 2] | 30 | 
